Experimental data: US20230354703A1, “ORGANIC COMPOUND AND LIGHT-EMITTING DEVICE” (SEMICONDUCTOR ENERGY LABORATORY CO., LTD., priority 2022, published 2023)

Columns and labels:
[1] = water-solubility examined by calculation: polarization term δp of the solubility parameter (classical molecular dynamics, Desmond/OPLS2005); settings: from the difference between the calculated δp and the δp of water (16.0); larger difference = lower solubility
Protocol: Then, the water-solubility of 2,9hpp2Phen was examined by calculation and the results are shown.
Desmond was used as software for the classical molecular dynamics calculation, and OPLS2005 was used for the force field. The calculation was performed using a high performance computer (Apollo 6500 manufactured by Hewlett Packard Enterprise Development).
A standard cell containing approximately 32 molecules is used a calculation model. […] After that, the structures are moved and rotated at random to move the molecules by Monte Carlo simulated annealing using OPLS2005 for the force field. Furthermore, the molecules are moved toward the center of the standard cell such that the density thereof is maximized; thus, the initial arrangement is obtained.
As a basis function, 6-31G** was used, and as a functional, B3LYP-D3 was used. […]
The aforementioned initial arrangement is subjected to Brownian motion simulation and then defined in an NVT ensemble; subsequently, calculation in an NPT ensemble is performed for an enough relaxation time (30 ns) under the conditions of 1 atm and 300 K with respect to time steps that reproduce molecular vibration (2 fs), so that an amorphous solid is calculated. […]
The actually measured value δp corresponding to the polarization term for the water-solubility parameter is disclosed as 16.0 in Japanese Published Patent Application No. 2017-173056, for example. […]

[2] = statement in words, background/description; cited from earlier work

SMILES: c1cc2ccc3ccc(N4CCCN5CCCN=C54)nc3c2nc1N1CCCN2CCCN=C21 [2,9hpp2Phen, 2,9-bis(1,3,4,6,7,8-hexahydro-2H-pyrimido[1,2-a]pyrimidin-1-yl)-1,10-phenanthroline]
- solubility in water compared with hpp2Py [1]: less soluble in water than hpp2Py

SMILES: c1cc(N2CCCN3CCCN=C32)c2ccc3c(N4CCCN5CCCN=C54)ccnc3c2n1 [4,7hpp2Phen, 4,7-bis(1,3,4,6,7,8-hexahydro-2H-pyrimido[1,2-a]pyrimidin-1-yl)-1,10-phenanthroline]
- solubility in water compared with hpp2Py [1]: less soluble in water than hpp2Py

SMILES: c1cc(N2CCCN3CCCN=C32)nc(N2CCCN3CCCN=C32)c1 [hpp2Py, 1,1′-pyridine-2,6-diyl-bis(1,3,4,6,7,8-hexahydro-2H-pyrimido[1,2-a]pyrimidine)]
- solubility in water [2]: highly soluble in water
